Experimental data: patent publication US20220133783A1 (priority 2020, published 2022)
Several values for one entry are separate records, joined by “and”; a condition that tells them apart may be missing. Equal values may be shown once.

Key:
[1] = test system: VSV pseudo typed with SARS-CoV2 Spike protein (rVSG-dG 2019-CoV-2-18AA S); format: cell-based
[2] = test system: virus; conditions: cited from earlier work
[3] = test system: Human coronavirus 229E; format: cell-based; conditions: 10 min pre-treatment with 10 μg/mL
[4] = test system: MRC-5 cells

Substance | FIC of the single agent within the combination [1] | reported effect by itself on virus inhibition (antiviral concentration) [2] | human coronavirus 229E binding and replication in the MRC-5 cell line ([3]; SEM) | viral entry and cytopathic effects caused by the virus ([3]; after 48 hours of incubation, compared to controls) | cytotoxicity [4]
copper | 0.10 and 0.07 | 300 µg/mL | – | – | –
ethyl-N-alpha-lauroyl-L-arginate HCl [ELAH] | 0.10 | 300 µg/mL | inhibited | reduces | non-cytotoxic
